# Assays:
# [1] = Toxicokinetics in SD rats; type: in vivo, Sprague-Dawley (SD) rats; conditions: for AUC(0-inf) / Cmax / Tmax / half-life: both sexes, Sprague-Dawley, rat, plasma, po, SD rats; for accumulation coefficient R: rats, after 28 days compared with d1
# Procedure: The rats that were judged suitable for the subchronic toxicity study were randomly divided into four groups (10 rats/sex/group). The rats received the test sample by gavage once daily for 28 days. HZ1006 was administered to the rats at doses of 120, 60, 20 and 0 (control) mg/kg, and the dosage volume was 5 mL/kg. Half of the 80 rats (half male and half female) were selected randomly according to body weight and dissected at d28. The remaining rats were dissected at […]. The dogs' blood samples were obtained on the 1st day, the 14th day and the last day (d28) of dosage for plasma HZ1006 content analyses at 0 (1st day only), 1/6, 0.5, 1, 2, 4, 8, 12 and 24 h after dosing, and the blood samples of the rats were acquired on the 1st day and 28th day at the same time as those of the dogs, which were handled and analyzed according to the procedure reported by Zhang et al..
# [2] = system: SD rats; assay: Subchronic toxicity test in SD rats: hematology; type: in vivo, Sprague-Dawley (SD) rats; conditions: for APTT / FIB / Lym / Neu / WBC: female rats; for RET: male rats
# Procedure: The rats that were judged suitable for the subchronic toxicity study were randomly divided into four groups (10 rats/sex/group). The rats received the test sample by gavage once daily for 28 days. HZ1006 was administered to the rats at doses of 120, 60, 20 and 0 (control) mg/kg, and the dosage volume was 5 mL/kg. Half of the 80 rats (half male and half female) were selected randomly according to body weight and dissected at d28. The remaining rats were dissected at […]. The following indexes were examined for the dogs used in the study, twice during the pre-dosage period and on d14, d28 and […]. The following parameters were evaluated on d28 and […] for the rats in the study: Blood samples of the animals were collected in tubes containing ethylenediamine tetraacetic acid (EDTA) and tested using an ADVIA2120 Hematology Autoanalyzer (Bayer, Leverkusen, Germany). The following indexes were examined: hemoglobin concentration (Hb), red blood cell count (RBC),mean corpuscular volume (MCV), hematocrit (HCT), mean corpuscular hemoglobin concentration (MCHC), mean corpuscular hemoglobin (MCH), white blood cell count (WBC), platelet count (Plt), WBC differential counts [neutrophilcyte (Neu), eosinophilic granulocyte (Eos), basophilic leukocyte (Bas), lymphocyte (Lym), and monocyte (Mon)] and reticulocytes (Ret). The serum coagulation times of the blood samples (1.8-mL samples were mixed with 0.2 mL sodium citrate), including prothrombin time (PT), fibrinogen (FIB), activated partial thromboplastin time (APTT), and thrombin time (TT), were tested using an MC10 plus Blood Coagulation Analyzer from Shanghai San Jose Medical Products Co., Ltd. (Shanghai, China).
# [3] = system: Beagle dogs; assay: Subchronic toxicity test in Beagle dogs: histopathology; type: in vivo; conditions: after 28 days
# Procedure: HZ1006 was administered orally to dogs (four/sex/group) at doses of 80, 40, 20, 5 and 0 (control) mg/kg/day, and the dosage volume was 2 mL/kg. The dogs received test doses with the exact amounts on a weekly basis based on current body weights. […] The other dogs in the above groups were dissected on the planned days. For the other groups, half of the dogs were anatomized on d28 and the remaining half on d42.
# After euthanasia, the following organs or tissues were isolated from the dogs and rats: skin, abnormal lesions, spleen, mammary glands, jejunum, pancreas, ileum, duodenum, stomach, colon, cecum, lymph nodes, mesenteric salivary glands, liver, submandibular lymph nodes, thymus, sternum, lungs, heart, esophagus, trachea, tongue, thyroid with parathyroid gland, sciatic nerve, aorta, femurs, skeletal muscle, pituitary gland, brain, kidneys, eyes, urinary bladder, adrenal glands, uterus, ovaries, testes, epididymis and prostate. The weights of the animal organs, such as the liver, spleen, heart, thymus, brain, lungs, adrenal glands, kidneys, uterus, ovaries, epididymis and testes, were tested using an electronic balance. The organs or tissues were fixed using 10% neutral buffered formalin and were then gradient dehydrated, embedded, sectioned, and stained with routine hematoxylin-eosin prior to histopathological observations.
# [4] = 20 mg/kg/day, 20 mg/kg/day oral, 28 days
# [5] = 20 mg/kg/day, 20 mg/kg/day oral, single
# [6] = 60 mg/kg/day, 60 mg/kg/day oral, 28 days
# [7] = 60 mg/kg/day, 60 mg/kg/day oral, single
# [8] = 120 mg/kg/day, 120 mg/kg/day oral, 28 days
# [9] = 120 mg/kg/day, 120 mg/kg/day oral, single
# [10] = 20 mg/kg oral daily, d42 (recovery)
# [11] = 60 mg/kg oral daily, d42 (recovery)
# [12] = 120 mg/kg oral daily, d42 (recovery)
structure (smiles),measurement,setting,value
CCCCCCCNc1cc(/C=C/C(=O)NO)ccc1OCCN(CC)CC [HZ1006],AUC(0-inf),[1]; [4],32.7 ± 14.9 ng·h/mL
same,Cmax,[1]; [4],12.9 ± 9.5 ng/mL
same,Tmax,[1]; [4],0.34 ± 0.18 h
same,half-life,[1]; [4],7.32 ± 2.93 h
same,AUC(0-inf),[1]; [5],8 ± 9.1 ng·h/mL
same,Cmax,[1]; [5],7.5 ± 7.2 ng/mL
same,Tmax,[1]; [5],0.86 ± 1.54 h
same,half-life,[1]; [5],0.6 ± 0.37 h
same,AUC(0-inf),[1]; [6],114 ± 30.9 ng·h/mL
same,Cmax,[1]; [6],19.7 ± 3.3 ng/mL
same,Tmax,[1]; [6],0.28 ± 0.17 h
same,half-life,[1]; [6],7.57 ± 2.31 h
same,AUC(0-inf),[1]; [7],39.1 ± 15 ng·h/mL
same,Cmax,[1]; [7],13.3 ± 5.5 ng/mL
same,Tmax,[1]; [7],0.5 h
same,half-life,[1]; [7],6.83 ± 2.69 h
same,AUC(0-inf),[1]; [8],447 ± 282 ng·h/mL
same,Cmax,[1]; [8],57.5 ± 26.1 ng/mL
same,Tmax,[1]; [8],1.92 ± 3.07 h
same,half-life,[1]; [8],7.03 ± 1.9 h
same,AUC(0-inf),[1]; [9],69.9 ± 22.9 ng·h/mL
same,Cmax,[1]; [9],20.4 ± 3.8 ng/mL
same,Tmax,[1]; [9],0.45 ± 0.13 h
same,half-life,[1]; [9],6.51 ± 1.62 h
same,accumulation coefficient R,[1]; 20 mg/kg/day oral,16.8 ± 21.6
same,accumulation coefficient R,[1]; 60 mg/kg/day oral,3.2 ± 1.2
same,accumulation coefficient R,[1]; 120 mg/kg/day oral,6.3 ± 2.8
same,APTT,"[2]; 20 mg/kg oral daily, d28",24.3 ± 3.5 s
same,FIB,"[2]; 20 mg/kg oral daily, d28",1.87 ± 0.09 g/L
same,Lym,"[2]; 20 mg/kg oral daily, d28",88.38 ± 1.68%
same,Neu,"[2]; 20 mg/kg oral daily, d28",8.70 ± 1.72%
same,WBC,"[2]; 20 mg/kg oral daily, d28",3.17 ± 1.23 ×10^9·L^−1
same,APTT,[2]; [10],22.2 ± 3.0 s
same,FIB,[2]; [10],1.62 ± 0.17 g/L
same,Lym,[2]; [10],85.40 ± 3.85%
same,Neu,[2]; [10],11.58 ± 4.04%
same,WBC,[2]; [10],2.68 ± 0.63 ×10^9·L^−1
same,APTT,"[2]; 60 mg/kg oral daily, d28",23.0 ± 2.4 s
same,FIB,"[2]; 60 mg/kg oral daily, d28",1.89 ± 0.06 g/L
same,Lym,"[2]; 60 mg/kg oral daily, d28",84.70 ± 5.45%
same,Neu,"[2]; 60 mg/kg oral daily, d28",12.08 ± 4.77%
same,WBC,"[2]; 60 mg/kg oral daily, d28",2.82 ± 0.60 ×10^9·L^−1
same,APTT,[2]; [11],25.2 ± 1.3 s
same,FIB,[2]; [11],1.62 ± 0.18 g/L
same,Lym,[2]; [11],85.36 ± 6.93%
same,Neu,[2]; [11],12.06 ± 6.70%
same,WBC,[2]; [11],2.53 ± 0.60 ×10^9·L^−1
same,APTT,"[2]; 120 mg/kg oral daily, d28",22.6 ± 2.4 s
same,FIB,"[2]; 120 mg/kg oral daily, d28",2.01 ± 0.40 g/L
same,Lym,"[2]; 120 mg/kg oral daily, d28",77.22 ± 8.78%
same,Neu,"[2]; 120 mg/kg oral daily, d28",19.28 ± 8.26%
same,WBC,"[2]; 120 mg/kg oral daily, d28",3.95 ± 0.77 ×10^9·L^−1
same,APTT,[2]; [12],25.2 ± 1.6 s
same,FIB,[2]; [12],1.85 ± 0.12 g/L
same,Lym,[2]; [12],85.88 ± 1.85%
same,Neu,[2]; [12],10.76 ± 1.81%
same,WBC,[2]; [12],3.00 ± 0.43 ×10^9·L^−1
same,RET,"[2]; 20 mg/kg oral daily, d28",1.88 ± 0.32%
same,RET,[2]; [10],1.92 ± 0.31%
same,RET,"[2]; 60 mg/kg oral daily, d28",1.43 ± 0.22%
same,RET,[2]; [11],1.82 ± 0.43%
same,RET,"[2]; 120 mg/kg oral daily, d28",2.04 ± 0.31 %
same,RET,[2]; [12],2.16 ± 0.22%
same,Bone marrow of sternum: decrease in hematopoietic cell numbers (incidence/number examined),[3]; 5 mg/kg/day oral,0/4
same,Epididymis: lack of mature sperm and secretions in the epididymal lumen as well as decrease of epididymal lumen size (incidence/number examined),[3]; 5 mg/kg/day oral,0/2
same,Lung: large confluent bronchopneumonia (incidence/number examined),[3]; 5 mg/kg/day oral,0/4
same,"Prostate: reduction in numbers and size, thinner epithelium, narrowing of the glandular cavity of prostatic acini (incidence/number examined)",[3]; 5 mg/kg/day oral,0/2
same,Testis: Reduction in numbers and types of spermatogenic cells (incidence/number examined),[3]; 5 mg/kg/day oral,0/2
same,Epididymis: lack of mature sperm and secretions in the epididymal lumen as well as decrease of epididymal lumen size (incidence/number examined),[3]; 20 mg/kg/day oral,0/2
same,Lung: large confluent bronchopneumonia (incidence/number examined),[3]; 20 mg/kg/day oral,0/4
same,"Prostate: reduction in numbers and size, thinner epithelium, narrowing of the glandular cavity of prostatic acini (incidence/number examined)",[3]; 20 mg/kg/day oral,0/2
same,Testis: Reduction in numbers and types of spermatogenic cells (incidence/number examined),[3]; 20 mg/kg/day oral,0/2
same,Bone marrow of sternum: decrease in hematopoietic cell numbers (incidence/number examined),[3]; 40 mg/kg/day oral,2/4
same,Epididymis: lack of mature sperm and secretions in the epididymal lumen as well as decrease of epididymal lumen size (incidence/number examined),[3]; 40 mg/kg/day oral,2/2
same,Lung: large confluent bronchopneumonia (incidence/number examined),[3]; 40 mg/kg/day oral,2/4
same,"Prostate: reduction in numbers and size, thinner epithelium, narrowing of the glandular cavity of prostatic acini (incidence/number examined)",[3]; 40 mg/kg/day oral,2/2
same,Testis: Reduction in numbers and types of spermatogenic cells (incidence/number examined),[3]; 40 mg/kg/day oral,2/2
same,Bone marrow of sternum: decrease in hematopoietic cell numbers (incidence/number examined),[3]; 80 mg/kg/day oral,3/4
same,Epididymis: lack of mature sperm and secretions in the epididymal lumen as well as decrease of epididymal lumen size (incidence/number examined),[3]; 80 mg/kg/day oral,2/2
same,Lung: large confluent bronchopneumonia (incidence/number examined),[3]; 80 mg/kg/day oral,2/4
same,"Prostate: reduction in numbers and size, thinner epithelium, narrowing of the glandular cavity of prostatic acini (incidence/number examined)",[3]; 80 mg/kg/day oral,2/2
same,Testis: Reduction in numbers and types of spermatogenic cells (incidence/number examined),[3]; 80 mg/kg/day oral,2/2

# — PMC5201331, “Subchronic Toxicities of HZ1006, a Hydroxamate-Based Histone Deacetylase Inhibitor, in Beagle Dogs and Sprague-Dawley Rats” (International Journal of Environmental Research and Public …, 2016)
